This passage reports Activity and CI results from ChEMBL document CHEMBL6071181, “Discovery of ZLC491 as a Potent, Selective, and Orally Bioavailable CDK12/13 PROTAC Degrader” (J Med Chem, 2024).

Test [1] addresses T1, Protein cereblon/Cyclin-dependent kinase 12 (Homo sapiens) (UniProt Q9NYV4+Q96SW2). The experiment in a line: PROTAC activity at CRBN/CDK12 in human MDA-MB-231 cells assessed as induction of CDK12 degradation incubated for 15 hrs by immunoblotting analysis. Type of test: cell-based. (In general: In western blotting, separated proteins are transferred to a membrane and probed.)

Test [2] addresses T1, Protein cereblon/Cyclin-dependent kinase 12 (Homo sapiens). In words: PROTAC activity at CRBN/CDK12 in human HCC38 cells assessed as induction of CDK12 degradation incubated for 15 hrs by immunoblotting analysis. As to conditions: dose 0.01-3 µM. Type of test: cell-based.
The target of test [3] is T2, Protein cereblon/Cyclin-dependent kinase 13 (Homo sapiens) (UniProt Q14004+Q96SW2). In words: PROTAC activity at CRBN/CDK13 in human MDA-MB-436 cells assessed as induction of CDK13 degradation incubated for 15 hrs by immunoblotting analysis. Type of test: cell-based. The settings on record: dose 0.01-3 µM.
T2 sequence (Q14004 whole entry, looked up): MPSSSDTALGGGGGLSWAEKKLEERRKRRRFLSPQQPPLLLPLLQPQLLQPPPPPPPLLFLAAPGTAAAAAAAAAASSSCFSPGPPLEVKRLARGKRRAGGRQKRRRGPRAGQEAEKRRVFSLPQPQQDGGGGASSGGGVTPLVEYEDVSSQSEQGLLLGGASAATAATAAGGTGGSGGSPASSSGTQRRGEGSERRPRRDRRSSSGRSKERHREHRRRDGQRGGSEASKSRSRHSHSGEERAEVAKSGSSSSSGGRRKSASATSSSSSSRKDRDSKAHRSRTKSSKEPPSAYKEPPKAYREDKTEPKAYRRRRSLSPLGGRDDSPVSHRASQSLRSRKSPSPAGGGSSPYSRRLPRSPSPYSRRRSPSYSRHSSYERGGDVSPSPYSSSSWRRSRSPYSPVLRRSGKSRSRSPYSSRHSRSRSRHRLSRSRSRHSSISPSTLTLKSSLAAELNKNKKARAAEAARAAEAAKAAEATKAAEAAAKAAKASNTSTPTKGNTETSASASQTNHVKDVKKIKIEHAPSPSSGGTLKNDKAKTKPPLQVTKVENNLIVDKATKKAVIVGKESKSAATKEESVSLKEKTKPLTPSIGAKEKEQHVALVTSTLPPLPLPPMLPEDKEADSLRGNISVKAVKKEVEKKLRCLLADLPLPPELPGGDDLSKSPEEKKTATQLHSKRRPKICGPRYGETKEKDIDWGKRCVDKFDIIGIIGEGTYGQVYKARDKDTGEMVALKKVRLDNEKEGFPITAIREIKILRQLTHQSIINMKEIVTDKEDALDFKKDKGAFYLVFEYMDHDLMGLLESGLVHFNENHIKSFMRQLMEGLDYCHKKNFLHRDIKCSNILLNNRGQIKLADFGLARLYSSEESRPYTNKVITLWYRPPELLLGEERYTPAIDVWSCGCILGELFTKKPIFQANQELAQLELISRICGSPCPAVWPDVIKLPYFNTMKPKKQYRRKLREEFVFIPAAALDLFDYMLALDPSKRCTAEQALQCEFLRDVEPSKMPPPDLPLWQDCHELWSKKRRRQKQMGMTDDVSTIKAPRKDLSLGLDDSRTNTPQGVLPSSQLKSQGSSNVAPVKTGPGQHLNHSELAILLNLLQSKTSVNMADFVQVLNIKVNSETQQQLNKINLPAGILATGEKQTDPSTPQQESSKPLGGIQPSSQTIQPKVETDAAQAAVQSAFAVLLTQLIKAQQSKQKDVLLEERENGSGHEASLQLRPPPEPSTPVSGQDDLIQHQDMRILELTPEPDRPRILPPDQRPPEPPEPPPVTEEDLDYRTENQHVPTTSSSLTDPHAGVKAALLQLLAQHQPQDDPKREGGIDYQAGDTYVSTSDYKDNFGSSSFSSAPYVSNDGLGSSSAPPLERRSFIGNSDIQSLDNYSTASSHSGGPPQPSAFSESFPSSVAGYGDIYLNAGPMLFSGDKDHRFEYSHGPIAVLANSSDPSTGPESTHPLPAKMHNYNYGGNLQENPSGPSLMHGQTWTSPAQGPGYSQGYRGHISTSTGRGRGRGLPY
T2 sequence (Q96SW2 whole entry, looked up): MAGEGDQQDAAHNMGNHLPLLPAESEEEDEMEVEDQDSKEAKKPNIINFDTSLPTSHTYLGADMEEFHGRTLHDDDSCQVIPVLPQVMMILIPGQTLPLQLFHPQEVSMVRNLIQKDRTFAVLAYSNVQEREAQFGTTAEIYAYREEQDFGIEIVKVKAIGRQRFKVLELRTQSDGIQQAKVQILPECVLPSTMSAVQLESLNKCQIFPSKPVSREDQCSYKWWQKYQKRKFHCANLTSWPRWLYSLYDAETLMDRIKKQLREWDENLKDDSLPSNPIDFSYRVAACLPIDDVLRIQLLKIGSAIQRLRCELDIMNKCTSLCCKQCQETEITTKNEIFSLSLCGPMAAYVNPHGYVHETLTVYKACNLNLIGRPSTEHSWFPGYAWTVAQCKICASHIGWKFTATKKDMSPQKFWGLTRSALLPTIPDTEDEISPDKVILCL
Test [4] deals with T2, Protein cereblon/Cyclin-dependent kinase 13 (Homo sapiens). The experiment in a line: PROTAC activity at CRBN/CDK13 in human MDA-MB-231 cells assessed as induction of CDK13 degradation at 1 uM pretreated with MG132 followed by compound addition and measured after 10 hrs by immunoblotting analysis. The test is classed as cell-based.
Test [5] shares this target. The experiment in a line: PROTAC activity at CRBN/CDK13 in human MDA-MB-231 cells assessed as induction of CDK13 degradation at 1 uM pretreated with MLN4924 followed by compound addition and measured after 10 hrs by immunoblotting analysis. Type of test: cell-based.
For test [6] the target is unchanged. In words: PROTAC activity at CRBN/CDK13 in human MDA-MB-231 cells assessed as induction of CDK13 degradation at 1 uM pretreated with pomalidomide followed by compound addition and measured after 10 hrs by immunoblotting analysis. The test is classed as cell-based.
The test system of test [7] is MDA-MB-231. In words: Induction of CCNK degradation in human MDA-MB-231 cells at 2 uM incubated for 8 hrs by global proteomic analysis. The test is classed as cell-based.
Test [8] has as its target T2, Protein cereblon/Cyclin-dependent kinase 13 (Homo sapiens). In words: PROTAC activity at CRBN/CDK13 in human MDA-MB-231 cells assessed as induction of CDK13 degradation at 2 uM by […] proteomic analysis. Type of test: cell-based.
The test system of test [9] is MDA-MB-231. The experiment in a line: Downregulation of ATR mRNA expression in human MDA-MB-231 cells incubated for 12 hrs by RT-qPCR analysis. Type of test: functional, cell-based. The settings on record: dose 60-300 nM. A general note: Quantitative PCR measures a nucleic acid by following its amplification.
The test system of test [10] is MDA-MB-231. The experiment in a line: Downregulation of BRCA2 mRNA expression in human MDA-MB-231 cells incubated for 12 hrs by RT-qPCR analysis. The test is classed as functional, cell-based. The settings on record: dose 60-300 nM.
The test system of test [11] is MDA-MB-231. The experiment in a line: Downregulation of RAD51 protein level in human MDA-MB-231 cells at 0.1 to 0.5 uM incubated for 48 hrs by immunoblotting analysis. Type of test: functional, cell-based. The settings on record: dose 0.1-0.5 µM.
The subject of test [12] is MDA-MB-231. In words: Synergistic antiproliferative activity against human MDA-MB-231 cells assessed as inhibition of cell growth at 0.3 to 7.5 uM incubated for 5 days in presence of olaparib by CCK8 assay. The test is classed as functional, cell-based. As to conditions: dose 0.3-7.5 µM, time 5.0 day. (Formazan colour is commonly taken as a measure of viable cells.)
Test [13] concerns MDA-MB-231. In words: Synergistic antiproliferative activity against human MDA-MB-231 cells assessed as combination index at 1.5 uM incubated for 5 days in presence of cisplatin by CCK8 assay. The test is classed as functional. As to conditions: time 5 day.
Test [14] has as its target T1, Protein cereblon/Cyclin-dependent kinase 12 (Homo sapiens). The experiment in a line: In vivo PROTAC activity at CRBN/CDK12 in female CB17SCID mouse model xenografted with human MDA-MB-231 cells assessed as reduction in CDK12 protein expression in tumor at 100 to 200 mg/kg, po administered for 5 days by immunoblotting analysis. Type of test: functional, organism-based. The settings on record: dose 100-200 mg/kg, time 5.0 day.

For test [15], the target named is T2, Protein cereblon/Cyclin-dependent kinase 13 (Homo sapiens). In words: In vivo PROTAC activity at CRBN/CDK13 in female CB17SCID mouse model xenografted with human MDA-MB-231 cells assessed as reduction in CDK13 protein expression in tumor at 100 to 200 mg/kg, po administered for 5 days by immunoblotting analysis. Type of test: functional, organism-based. As to conditions: dose 100-200 mg/kg, time 5.0 day.

Calls of active or inactive are those of the source. The calls are words filed in the database; no cut-off is given here.

T1 sequence (Q96SW2 whole entry, looked up): as above
T1 sequence (Q9NYV4 whole entry, looked up): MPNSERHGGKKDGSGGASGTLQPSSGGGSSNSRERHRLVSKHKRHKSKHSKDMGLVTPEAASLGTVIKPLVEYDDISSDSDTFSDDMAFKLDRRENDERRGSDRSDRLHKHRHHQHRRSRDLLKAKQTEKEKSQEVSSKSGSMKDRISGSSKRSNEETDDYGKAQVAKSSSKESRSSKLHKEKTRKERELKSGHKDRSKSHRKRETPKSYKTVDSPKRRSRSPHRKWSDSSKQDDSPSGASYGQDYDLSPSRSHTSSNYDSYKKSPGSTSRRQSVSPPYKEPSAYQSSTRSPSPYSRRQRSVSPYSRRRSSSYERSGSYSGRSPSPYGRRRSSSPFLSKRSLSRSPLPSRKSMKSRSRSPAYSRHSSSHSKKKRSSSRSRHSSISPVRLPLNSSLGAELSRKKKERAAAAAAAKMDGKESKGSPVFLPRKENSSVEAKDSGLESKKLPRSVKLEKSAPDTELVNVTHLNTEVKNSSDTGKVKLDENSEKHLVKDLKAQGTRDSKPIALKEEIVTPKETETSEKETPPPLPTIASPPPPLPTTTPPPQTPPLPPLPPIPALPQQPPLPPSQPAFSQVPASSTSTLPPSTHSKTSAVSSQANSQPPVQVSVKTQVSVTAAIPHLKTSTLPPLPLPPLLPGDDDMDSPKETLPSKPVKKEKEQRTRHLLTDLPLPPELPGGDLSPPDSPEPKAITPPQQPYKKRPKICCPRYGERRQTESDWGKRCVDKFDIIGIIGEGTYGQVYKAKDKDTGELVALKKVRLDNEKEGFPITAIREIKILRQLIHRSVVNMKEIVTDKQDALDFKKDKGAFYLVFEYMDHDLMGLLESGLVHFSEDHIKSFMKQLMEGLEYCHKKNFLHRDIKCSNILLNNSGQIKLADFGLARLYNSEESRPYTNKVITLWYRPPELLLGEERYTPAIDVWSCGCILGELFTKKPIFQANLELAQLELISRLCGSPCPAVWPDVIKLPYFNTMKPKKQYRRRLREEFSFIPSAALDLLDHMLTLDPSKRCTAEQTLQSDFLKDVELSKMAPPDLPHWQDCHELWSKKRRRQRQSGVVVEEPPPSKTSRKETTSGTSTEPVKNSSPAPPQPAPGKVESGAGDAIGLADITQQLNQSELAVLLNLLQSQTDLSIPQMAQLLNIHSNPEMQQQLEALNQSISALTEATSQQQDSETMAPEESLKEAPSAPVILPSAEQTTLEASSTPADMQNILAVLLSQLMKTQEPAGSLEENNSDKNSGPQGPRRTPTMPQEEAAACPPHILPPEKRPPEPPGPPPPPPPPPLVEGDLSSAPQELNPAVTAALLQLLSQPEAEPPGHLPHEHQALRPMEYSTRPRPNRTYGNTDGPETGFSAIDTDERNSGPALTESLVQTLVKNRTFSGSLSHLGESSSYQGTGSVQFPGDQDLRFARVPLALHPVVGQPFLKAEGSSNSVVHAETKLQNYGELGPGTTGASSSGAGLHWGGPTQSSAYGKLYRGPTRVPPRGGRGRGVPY

For the molecule `N#Cc1ccc(N[C@H]2CC[C@H](N(C(=O)NCc3ccccc3)c3ccc(N4CCN(C5CCN(c6cc7c(cc6F)C(=O)N(C6CCC(=O)NC6=O)C7=O)CC5)CC4)cc3)CC2)nc1` (stereo not given in full), the Activity entry (in [1]; in test [2]; in test [3]; in the test on MDA-MB-231 [9]; with MDA-MB-231 [10]) was “Dose-Dependent Effect” throughout. The result in test [4], in test [5] and in test [6] was inactive. Further, the outcome (with MDA-MB-231 [7]; in test [8]; in the test with MDA-MB-231 [11]; in the test with MDA-MB-231 [12]; in test [14]; in test [15]) was Active. Also, in the test on MDA-MB-231 [13], the CI is 0.17.
